# Reference: US20260232767A1, “INTERLEUKIN-23 RECEPTOR ANTAGONIST PEPTIDES FOR USE IN THE TREATMENT OF PSORIASIS” (Janssen Pharmaceutica NV, priority 2023, published 2026)
# Test system: subjects with moderate-to-severe plaque psoriasis
# Assay: IGA score, Example 2
# Assay type: in vivo, human
# Conditions: for Subjects achieving IGA Score = 0 at Week 52 / Subjects achieving IGA Score = 0 or 1 at Week 52: non-responder imputation
# Excerpt: Described below is a multicenter, long-term extension (LTE), double-blind, dose-ranging, parallel group interventional study in participants from Example 1 to evaluate the long-term efficacy and safety of the hydrochloride salt of the compound of Formula (I) for the treatment of moderate-to-severe plaque psoriasis. Patients from Example 1 continued to receive the same dose of the compound of Formula (I) for an additional 36-week treatment period with a 4-week safety follow up period after the last administration of the compound of Formula (I). Patients randomized to placebo in Example 1 received the compound of Formula (I) at a dose of 100 mg QD starting at Week 16 of Example 1 (FIG. 21).
# Secondary endpoints included additional change from baseline of Example 1 in PASI, IGA, and PSSD at Week 52, including the proportions of subjects that achieved PAST 90, PAST 100, an IGA score of cleared (0) or minimal (1), PSSD symptoms score=0, and PSSD signs score=0.
# [1] = Placebo → 100 mg QD, crossed over at or after Week 16
structure (smiles),measurement,setting,value
"CC(=O)NCCCC[C@@H]1NC(=O)[C@H](Cc2c[nH]c3c(C)cccc23)NC(=O)[C@H]([C@@H](C)O)NC(=O)[C@H](CC(N)=O)NC(=O)[C@@H](NC(C)=O)C(C)(C)SSC(C)(C)[C@@H](C(=O)N[C@@H](Cc2ccc(OCCN)cc2)C(=O)N[C@@H](Cc2ccc3ccccc3c2)C(=O)NC2(C(=O)N[C@@H](CCC(=O)O)C(=O)N[C@@H](CC(N)=O)C(=O)N[C@@H](Cc3cccnc3)C(=O)N(C)CC(N)=O)CCOCC2)NC1=O [IL-23 receptor antagonist peptide, Ac-[Pen]*-N-T-[W(7-Me)]-[Lys(Ac)]-[Pen]*-Phe[4-(2-aminoethoxy)]-[2-Nal]-[THP]-E-N-[3-Pal]-Sarc-NH2 (*[Pen]-[Pen]* formdisulfidebond)]",Subjects achieving IGA Score = 0 at Week 52,25 mg BID,(19.5%)
same,Subjects achieving IGA Score = 0 or 1 at Week 52,25 mg BID,(46.3%)
same,Subjects achieving IGA Score = 0 at Week 52,25 mg QD,(14.0%)
same,Subjects achieving IGA Score = 0 or 1 at Week 52,25 mg QD,(37.2%)
same,Subjects achieving IGA Score = 0 at Week 52,50 mg QD,(23.3%)
same,Subjects achieving IGA Score = 0 or 1 at Week 52,50 mg QD,(60.5%)
same,Subjects achieving IGA Score = 0 at Week 52,[1],11 (31.4%)
same,Subjects achieving IGA Score = 0 or 1 at Week 52,[1],23 (65.7%)
same,"IGA Score ≤2 (‘Mild’or better), subjects (%)","Week 1, 25 mg BID, N=41",(7.3%)
same,"IGA Score ≤2 (‘Mild’or better), subjects (%)","Week 1, 25 mg QD, N=43",(14.0%)
same,"IGA Score = 0 (‘Cleared’) or 1 (‘Minimal’), subjects (%)","Week 1, 50 mg QD, N=43",(2.3%)
same,"IGA Score ≤2 (‘Mild’or better), subjects (%)","Week 1, 50 mg QD, N=43",(16.3%)
same,"IGA Score = 0 (‘Cleared’) or 1 (‘Minimal’), subjects (%)","Week 1, 100 mg BID, N=42",(2.4%)
same,"IGA Score ≤2 (‘Mild’or better), subjects (%)","Week 1, 100 mg BID, N=42",(23.8%)
same,"IGA Score = 0 (‘Cleared’) or 1 (‘Minimal’), subjects (%)","Week 1, 100 mg QD, N=43",(4.7%)
same,"IGA Score ≤2 (‘Mild’or better), subjects (%)","Week 1, 100 mg QD, N=43",(9.3%)
same,"IGA Score = 0 (‘Cleared’) or 1 (‘Minimal’), subjects (%)","Week 2, 25 mg BID, N=41",(2.4%)
same,"IGA Score ≤2 (‘Mild’or better), subjects (%)","Week 2, 25 mg BID, N=41",(22.0%)
same,"IGA Score ≤2 (‘Mild’or better), subjects (%)","Week 2, 25 mg QD, N=43",(20.9%)
same,"IGA Score = 0 (‘Cleared’) or 1 (‘Minimal’), subjects (%)","Week 2, 50 mg QD, N=43",(7.0%)
same,"IGA Score ≤2 (‘Mild’or better), subjects (%)","Week 2, 50 mg QD, N=43",(34.9%)
same,"IGA Score = 0 (‘Cleared’) or 1 (‘Minimal’), subjects (%)","Week 2, 100 mg BID, N=42",(9.5%)
same,"IGA Score ≤2 (‘Mild’or better), subjects (%)","Week 2, 100 mg BID, N=42",(33.3%)
same,"IGA Score = 0 (‘Cleared’) or 1 (‘Minimal’), subjects (%)","Week 2, 100 mg QD, N=43",(4.7%)
same,"IGA Score ≤2 (‘Mild’or better), subjects (%)","Week 2, 100 mg QD, N=43",(34.9%)
same,"IGA Score = 0 (‘Cleared’) or 1 (‘Minimal’), subjects (%)","Week 4, 25 mg BID, N=41",(17.1%)
same,"IGA Score ≤2 (‘Mild’or better), subjects (%)","Week 4, 25 mg BID, N=41",(51.2%)
same,"IGA Score = 0 (‘Cleared’) or 1 (‘Minimal’), subjects (%)","Week 4, 25 mg QD, N=43",(9.3%)
same,"IGA Score ≤2 (‘Mild’or better), subjects (%)","Week 4, 25 mg QD, N=43",(44.2%)
same,"IGA Score = 0 (‘Cleared’) or 1 (‘Minimal’), subjects (%)","Week 4, 50 mg QD, N=43",(16.3%)
same,"IGA Score ≤2 (‘Mild’or better), subjects (%)","Week 4, 50 mg QD, N=43",(48.8%)
same,"IGA Score = 0 (‘Cleared’) or 1 (‘Minimal’), subjects (%)","Week 4, 100 mg BID, N=42",(38.1%)
same,"IGA Score ≤2 (‘Mild’or better), subjects (%)","Week 4, 100 mg BID, N=42",(69.0%)
same,"IGA Score = 0 (‘Cleared’) or 1 (‘Minimal’), subjects (%)","Week 4, 100 mg QD, N=43",(20.9%)
same,"IGA Score ≤2 (‘Mild’or better), subjects (%)","Week 4, 100 mg QD, N=43",(65.1%)
same,"IGA Score = 0 (‘Cleared’) or 1 (‘Minimal’), subjects (%)","Week 8, 25 mg BID, N=41",(26.8%)
same,"IGA Score = 0 (‘Cleared’), subjects (%)","Week 8, 25 mg BID, N=41",(4.9%)
same,"IGA Score ≤2 (‘Mild’or better), subjects (%)","Week 8, 25 mg BID, N=41",(73.2%)
same,"IGA Score = 0 (‘Cleared’) or 1 (‘Minimal’), subjects (%)","Week 8, 25 mg QD, N=43",(27.9%)
same,"IGA Score = 0 (‘Cleared’), subjects (%)","Week 8, 25 mg QD, N=43",(2.3%)
same,"IGA Score ≤2 (‘Mild’or better), subjects (%)","Week 8, 25 mg QD, N=43",(55.8%)
same,"IGA Score = 0 (‘Cleared’) or 1 (‘Minimal’), subjects (%)","Week 8, 50 mg QD, N=43",(44.2%)
same,"IGA Score = 0 (‘Cleared’), subjects (%)","Week 8, 50 mg QD, N=43",(4.7%)
same,"IGA Score ≤2 (‘Mild’or better), subjects (%)","Week 8, 50 mg QD, N=43",(74.4%)
same,"IGA Score = 0 (‘Cleared’) or 1 (‘Minimal’), subjects (%)","Week 8, 100 mg BID, N=42",(64.3%)
same,"IGA Score = 0 (‘Cleared’), subjects (%)","Week 8, 100 mg BID, N=42",(19.0%)
same,"IGA Score ≤2 (‘Mild’or better), subjects (%)","Week 8, 100 mg BID, N=42",(78.6%)
same,"IGA Score = 0 (‘Cleared’) or 1 (‘Minimal’), subjects (%)","Week 8, 100 mg QD, N=43",(46.5%)
same,"IGA Score = 0 (‘Cleared’), subjects (%)","Week 8, 100 mg QD, N=43",(9.3%)
same,"IGA Score ≤2 (‘Mild’or better), subjects (%)","Week 8, 100 mg QD, N=43",(72.1%)
same,"IGA Score = 0 (‘Cleared’) or 1 (‘Minimal’), subjects (%)","Week 12, 25 mg BID, N=41",(43.9%)
same,"IGA Score = 0 (‘Cleared’), subjects (%)","Week 12, 25 mg BID, N=41",(7.3%)
same,"IGA Score ≤2 (‘Mild’or better), subjects (%)","Week 12, 25 mg BID, N=41",(78.0%)
same,"IGA Score = 0 (‘Cleared’) or 1 (‘Minimal’), subjects (%)","Week 12, 25 mg QD, N=43",(25.6%)
same,"IGA Score = 0 (‘Cleared’), subjects (%)","Week 12, 25 mg QD, N=43",(7.0%)
same,"IGA Score ≤2 (‘Mild’or better), subjects (%)","Week 12, 25 mg QD, N=43",(72.1%)
same,"IGA Score = 0 (‘Cleared’) or 1 (‘Minimal’), subjects (%)","Week 12, 50 mg QD, N=43",(51.2%)
same,"IGA Score = 0 (‘Cleared’), subjects (%)","Week 12, 50 mg QD, N=43",(9.3%)
same,"IGA Score ≤2 (‘Mild’or better), subjects (%)","Week 12, 50 mg QD, N=43",(81.4%)
same,"IGA Score = 0 (‘Cleared’) or 1 (‘Minimal’), subjects (%)","Week 12, 100 mg BID, N=42",(66.7%)
same,"IGA Score = 0 (‘Cleared’), subjects (%)","Week 12, 100 mg BID, N=42",(40.5%)
same,"IGA Score ≤2 (‘Mild’or better), subjects (%)","Week 12, 100 mg BID, N=42",(85.7%)
same,"IGA Score = 0 (‘Cleared’) or 1 (‘Minimal’), subjects (%)","Week 12, 100 mg QD, N=43",(53.5%)
same,"IGA Score = 0 (‘Cleared’), subjects (%)","Week 12, 100 mg QD, N=43",(18.6%)
same,"IGA Score ≤2 (‘Mild’or better), subjects (%)","Week 12, 100 mg QD, N=43",(81.4%)
same,"IGA Score = 0 (‘Cleared’) or 1 (‘Minimal’), subjects (%)","Week 16, 25 mg BID, N=41",(51.2%)
same,"IGA Score = 0 (‘Cleared’), subjects (%)","Week 16, 25 mg BID, N=41",(14.6%)
same,"IGA Score ≤2 (‘Mild’or better), subjects (%)","Week 16, 25 mg BID, N=41",(73.2%)
same,"IGA Score = 0 (‘Cleared’) or 1 (‘Minimal’), subjects (%)","Week 16, 25 mg QD, N=43",(39.5%)
same,"IGA Score = 0 (‘Cleared’), subjects (%)","Week 16, 25 mg QD, N=43",(16.3%)
same,"IGA Score ≤2 (‘Mild’or better), subjects (%)","Week 16, 25 mg QD, N=43",(67.4%)
same,"IGA Score = 0 (‘Cleared’) or 1 (‘Minimal’), subjects (%)","Week 16, 50 mg QD, N=43",(58.1%)
same,"IGA Score = 0 (‘Cleared’), subjects (%)","Week 16, 50 mg QD, N=43",(34.9%)
same,"IGA Score ≤2 (‘Mild’or better), subjects (%)","Week 16, 50 mg QD, N=43",(81.4%)
same,"IGA Score = 0 (‘Cleared’) or 1 (‘Minimal’), subjects (%)","Week 16, 100 mg BID, N=42",(64.3%)
same,"IGA Score = 0 (‘Cleared’), subjects (%)","Week 16, 100 mg BID, N=42",(45.2%)
same,"IGA Score ≤2 (‘Mild’or better), subjects (%)","Week 16, 100 mg BID, N=42",(81.0%)
same,"IGA Score = 0 (‘Cleared’) or 1 (‘Minimal’), subjects (%)","Week 16, 100 mg QD, N=43",(62.8%)
same,"IGA Score = 0 (‘Cleared’), subjects (%)","Week 16, 100 mg QD, N=43",(27.9%)
same,"IGA Score ≤2 (‘Mild’or better), subjects (%)","Week 16, 100 mg QD, N=43",(79.1%)
same,"IGA Score = 0 (‘Cleared’) or 1 (‘Minimal’), subjects (%)","Week 20, 25 mg BID, N=41",(48.8%)
same,"IGA Score = 0 (‘Cleared’), subjects (%)","Week 20, 25 mg BID, N=41",(19.5%)
same,"IGA Score ≤2 (‘Mild’or better), subjects (%)","Week 20, 25 mg BID, N=41",(75.6%)
same,"IGA Score = 0 (‘Cleared’) or 1 (‘Minimal’), subjects (%)","Week 20, 25 mg QD, N=43",(44.2%)
same,"IGA Score = 0 (‘Cleared’), subjects (%)","Week 20, 25 mg QD, N=43",(14.0%)
same,"IGA Score ≤2 (‘Mild’or better), subjects (%)","Week 20, 25 mg QD, N=43",(65.1%)
same,"IGA Score = 0 (‘Cleared’) or 1 (‘Minimal’), subjects (%)","Week 20, 50 mg QD, N=43",(55.8%)
same,"IGA Score = 0 (‘Cleared’), subjects (%)","Week 20, 50 mg QD, N=43",(20.9%)
same,"IGA Score ≤2 (‘Mild’or better), subjects (%)","Week 20, 50 mg QD, N=43",(81.4%)
same,"IGA Score = 0 (‘Cleared’) or 1 (‘Minimal’), subjects (%)","Week 20, 100 mg BID, N=42",(61.9%)
same,"IGA Score = 0 (‘Cleared’), subjects (%)","Week 20, 100 mg BID, N=42",(42.9%)
same,"IGA Score ≤2 (‘Mild’or better), subjects (%)","Week 20, 100 mg BID, N=42",(81.0%)
same,"IGA Score = 0 (‘Cleared’) or 1 (‘Minimal’), subjects (%)","Week 20, 100 mg QD, N=43",(58.1%)
same,"IGA Score = 0 (‘Cleared’), subjects (%)","Week 20, 100 mg QD, N=43",(16.3%)
